In US11840686B2, “Modulation of prekallikrein (PKK) expression” (Ionis Pharmaceuticals, Inc., priority 2013, dated 2023):
Strand notation (5' to 3'): a small letter for the sugar, then the base; units joined by * are phosphorothioate-linked, units joined directly phosphodiester-linked; [ ] holds rarer units or linkages, { } end groups; capitals alone tell only the bases. e = 2'-O-(2-methoxyethyl) (MOE); [5mC] = 5-methylcytosine; d = 2'-deoxy (DNA)

Tested on: human PKK mRNA
Experiment: Antisense inhibition of human PKK mRNA in HepaRG cells, 3,000 nM (Example 1)
Type: cell-based
Conditions: relative to untreated control cells
In short: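 HepaRG cells, 20,000 per well, were electroporated with 3,000 nM 5-10-5 MOE gapmer (phosphorothioate, 5-methylcytosine). After about 24 h, PKK mRNA was measured by qRT-PCR with primer probe set RTS3454 and normalised to RIBOGREEN total RNA. Values are percent inhibition versus untreated cells.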

[1] = Table 4, HepaRG cells, electroporation with 3,000 nM antisense oligonucleotide, approx. 24 hours, PKK mRNA by RT-PCR (RTS3454)
[2] = Table 2, PKK mRNA, HepaRG cells, 3,000 nM, electroporation, ~24 h
[3] = Table 3, HepaRG cells, electroporation with 3,000 nM antisense oligonucleotide, approx. 24 hours, PKK mRNA by RT-PCR (RTS3454)
[4] = Table 1, PKK mRNA, HepaRG cells, 3,000 nM, electroporation, ~24 h

531195 (eA*eT*eA*eA*eA*dA*dT*dA*dT*dA*dT*dT*dA*dA*dG*eG*e[5mC]*eA*eA*e[5mC]; antisense) [compound 531195]
% inhibition [1]: 61%

531080 (e[5mC]*eA*eT*eT*eG*dT*d[5mC]*d[5mC]*dT*d[5mC]*dA*dG*d[5mC]*dA*dG*e[5mC]*eT*e[5mC]*eT*eG; antisense) [compound 531080]
% inhibition [2]: 55%

531162 (antisense eA*eA*eT*eT*eT*d[5mC]*d[5mC]*d[5mC]*dA*dG*dA*dT*dG*dT*dA*eT*eT*eA*eG*eT) [compound 531162]
% inhibition [1]: 43%

531142 (antisense eT*eG*eT*eT*eT*dA*dA*dA*dA*dT*dA*dT*d[5mC]*dT*d[5mC]*eT*eA*eT*eA*e[5mC]) [compound 531142]
% inhibition [3]: 8%

530947 (antisense eG*eA*eA*eG*e[5mC]*dT*dA*d[5mC]*dA*dT*d[5mC]*d[5mC]*d[5mC]*d[5mC]*dA*e[5mC]*e[5mC]*eT*e[5mC]*eT) [compound 530947]
% inhibition [4]: 27%

530942 (antisense e[5mC]*eA*eG*eG*eA*dA*dA*d[5mC]*dT*dG*dT*dA*dG*d[5mC]*dA*eA*eA*e[5mC]*eA*eA) [compound 530942]
% inhibition [4]: 22%

531208 (eT*e[5mC]*e[5mC]*eA*eG*dA*dA*dT*dA*d[5mC]*dT*dG*d[5mC]*d[5mC]*d[5mC]*e[5mC]*eA*eT*e[5mC]*eT; antisense) [compound 531208]
% inhibition [1]: 23%

530969 (antisense eG*eT*eG*e[5mC]*e[5mC]*dA*d[5mC]*dT*dT*dT*d[5mC]*dA*dG*dA*dT*eG*eT*eT*eT*eT) [compound 530969]
% inhibition [4]: 0%

531161 (antisense e[5mC]*eA*eG*eA*e[5mC]*dA*d[5mC]*d[5mC]*dT*dT*d[5mC]*dT*dT*d[5mC]*dA*e[5mC]*eA*eA*eG*eG) [compound 531161]
% inhibition [1]: 40%

530939 (antisense eA*eA*e[5mC]*eA*eA*dG*dG*dA*dA*dA*dT*dG*dA*dA*dA*eT*eA*eA*eG*eT) [compound 530939]
% inhibition [4]: 0%

531175 (antisense eT*eA*e[5mC]*eT*e[5mC]*dA*dG*dG*dA*dA*dA*dT*dT*dA*dG*eA*eA*eT*eA*eT) [compound 531175]
% inhibition [1]: 25%

531174 (antisense eT*eG*eT*eT*eA*dA*dG*dT*dA*dT*dA*dT*dT*dA*dA*e[5mC]*eT*eA*eT*eT) [compound 531174]
% inhibition [1]: 10%

531007 (eA*eA*e[5mC]*eA*e[5mC]*dA*dA*dT*dT*dG*d[5mC]*dT*dT*d[5mC]*dT*eT*eG*eG*eA*eG; antisense) [compound 531007]
% inhibition [2]: 51%

531025 (eT*e[5mC]*eT*e[5mC]*eT*dT*dT*dT*dA*dT*dT*dT*dG*dT*dG*eA*eG*eA*eA*eA; antisense) [compound 531025]
% inhibition [2]: 34%

530974 (antisense eT*eT*e[5mC]*eT*eT*dG*dA*dG*dG*dA*dG*dT*dA*dG*dA*eG*eG*eA*eA*e[5mC]) [compound 530974]
% inhibition [4]: 18%

531187 (eA*eT*e[5mC]*eT*eA*dT*dT*dG*dG*dT*dT*d[5mC]*dA*dG*dG*eA*eG*e[5mC]*e[5mC]*eA; antisense) [compound 531187]
% inhibition [1]: 72%

530972 (antisense eG*eT*eA*eG*eA*dG*dG*dA*dA*d[5mC]*dT*dT*dG*dG*dT*eG*eT*eG*e[5mC]*e[5mC]) [compound 530972]
% inhibition [4]: 42%

531126 (antisense eT*eT*eT*eT*eG*dA*dA*dT*d[5mC]*dT*dT*d[5mC]*dA*dT*dT*e[5mC]*eA*eA*eA*eG) [compound 531126]
% inhibition [3]: 0%

531117 (antisense eA*e[5mC]*e[5mC]*e[5mC]*eA*dA*dT*dT*dA*dT*dT*dT*dT*dT*dA*eA*eT*eG*eG*e[5mC]) [compound 531117]
% inhibition [3]: 62%

531019 (eG*eT*eG*eA*eG*dG*dA*d[5mC]*d[5mC]*d[5mC]*dA*d[5mC]*dT*dG*dG*eT*eG*eT*e[5mC]*e[5mC]; antisense) [compound 531019]
% inhibition [2]: 28%

530994 (e[5mC]*eT*eT*eG*eG*d[5mC]*dA*dA*dA*d[5mC]*dA*dT*dT*d[5mC]*dA*e[5mC]*eT*e[5mC]*e[5mC]*eT; antisense) [compound 530994]
% inhibition [4]: 50%

531181 (antisense eG*eG*eT*eT*eG*dA*dG*dG*dG*dA*d[5mC]*dA*dG*dA*d[5mC]*eA*e[5mC]*eA*eG*eG) [compound 531181]
% inhibition [1]: 36%

531001 (eA*eG*eA*eT*eA*dA*dT*d[5mC]*dT*dT*dA*dA*dG*dA*dA*eA*e[5mC]*eA*e[5mC]*eT; antisense) [compound 531001]
% inhibition [4]: 44%

531199 (e[5mC]*eT*eT*eT*eG*dA*dA*dT*dA*dG*dA*dA*dA*dA*dT*eG*eA*e[5mC]*eT*eA; antisense) [compound 531199]
% inhibition [1]: 1%

531090 (eA*e[5mC]*eA*eG*eA*dA*dA*d[5mC]*d[5mC]*dA*dT*dG*dA*dT*dG*eT*eT*eG*e[5mC]*eT; antisense) [compound 531090]
% inhibition [3]: 59%

530966 (antisense eA*eA*eT*eT*eT*d[5mC]*dT*dG*dA*dA*dA*dG*dG*dG*d[5mC]*eA*e[5mC]*eA*eG*eG) [compound 530966]
% inhibition [4]: 58%

530941 (antisense eA*eA*e[5mC]*eT*eG*dT*dA*dG*d[5mC]*dA*dA*dA*d[5mC]*dA*dA*eG*eG*eA*eA*eA) [compound 530941]
% inhibition [4]: 22%

531061 (antisense eT*eG*e[5mC]*eT*e[5mC]*d[5mC]*d[5mC]*dT*dG*d[5mC]*dG*dG*dG*d[5mC]*dA*e[5mC]*eA*eG*e[5mC]*e[5mC]) [compound 531061]
% inhibition [2]: 52%

530977 (antisense eT*e[5mC]*e[5mC]*eA*eG*dA*dT*dA*dT*dG*dG*dT*dG*dT*dT*eT*eT*e[5mC]*eT*eT) [compound 530977]
% inhibition [4]: 55%

531157 (antisense eA*eA*eG*eT*eG*dA*dA*dT*d[5mC]*dA*dG*dA*dG*d[5mC]*dA*eG*eT*eG*eT*eA) [compound 531157]
% inhibition [3]: 46%

531210 (eA*eG*eA*e[5mC]*eA*dT*dT*dG*dT*d[5mC]*dA*dA*dA*dT*dG*eT*e[5mC]*e[5mC]*e[5mC]*e[5mC]; antisense) [compound 531210]
% inhibition [1]: 60%

531101 (eA*eT*eG*eT*eA*dA*dG*dT*dT*dA*d[5mC]*dA*dA*dG*d[5mC]*e[5mC]*eA*e[5mC]*eT*eA; antisense) [compound 531101]
% inhibition [3]: 37%

530964 (antisense e[5mC]*eT*eT*e[5mC]*eA*dG*dT*dG*dA*dG*dA*dA*dT*d[5mC]*d[5mC]*eA*eG*eA*eT*eT) [compound 530964]
% inhibition [4]: 44%

530938 (antisense eG*eG*eA*eA*eA*dT*dG*dA*dA*dA*dT*dA*dA*dG*dT*eT*eG*e[5mC]*eT*eT) [compound 530938]
% inhibition [4]: 11%

531156 (antisense eT*e[5mC]*eT*eG*eA*dA*dA*dA*dG*d[5mC]*d[5mC]*d[5mC]*dT*d[5mC]*d[5mC]*eG*eA*eG*e[5mC]*eT) [compound 531156]
% inhibition [3]: 0%

531223 (eT*eG*eT*eA*e[5mC]*dT*d[5mC]*dA*d[5mC]*d[5mC]*dG*dG*dT*dA*d[5mC]*eT*e[5mC]*eT*eG*e[5mC]; antisense) [compound 531223]
% inhibition [1]: 58%

531184 (antisense eA*e[5mC]*eT*e[5mC]*eT*dT*dA*dT*dT*dA*dG*d[5mC]*dT*dG*dG*eT*eA*eG*eA*eA) [compound 531184]
% inhibition [1]: 74%

531131 (antisense eT*eA*eG*eA*eA*dA*dG*dA*dG*dT*dA*dA*dG*d[5mC]*d[5mC]*eT*eT*e[5mC]*eA*e[5mC]) [compound 531131]
% inhibition [3]: 0%

531108 (antisense eT*eG*eA*eA*e[5mC]*d[5mC]*d[5mC]*dA*dA*dA*dA*d[5mC]*dT*d[5mC]*dT*eG*eG*e[5mC]*eA*e[5mC]) [compound 531108]
% inhibition [3]: 50%

531074 (e[5mC]*eT*eT*eT*eG*d[5mC]*dA*dG*dA*dT*dG*dA*dG*dG*dA*e[5mC]*e[5mC]*e[5mC]*e[5mC]*e[5mC]; antisense) [compound 531074]
% inhibition [2]: 67%

531060 (antisense eT*eG*eG*eT*eG*dA*dT*dG*d[5mC]*d[5mC]*d[5mC]*dA*d[5mC]*d[5mC]*dA*eA*eA*e[5mC]*eG*e[5mC]) [compound 531060]
% inhibition [2]: 35%

531068 (e[5mC]*e[5mC]*eA*eT*eG*dT*dA*d[5mC]*dT*d[5mC]*dA*dG*d[5mC]*dG*dA*e[5mC]*eT*eT*eT*eG; antisense) [compound 531068]
% inhibition [2]: 59%

531153 (antisense e[5mC]*eT*eA*eG*eA*dA*dG*d[5mC]*dA*dA*dT*dA*dT*dT*dT*eA*eA*eA*eG*e[5mC]) [compound 531153]
% inhibition [3]: 0%

531081 (eT*eG*eG*eT*eT*dT*dT*dT*dG*dG*dA*dA*dT*dT*d[5mC]*eT*eG*eA*eA*eA; antisense) [compound 531081]
% inhibition [2]: 14%

531044 (antisense eG*eG*e[5mC]*eA*eT*dT*d[5mC]*dT*dT*d[5mC]*dA*dT*dT*dT*dG*eT*eT*eA*e[5mC]*e[5mC]) [compound 531044]
% inhibition [2]: 68%

531164 (antisense eT*eT*eA*eA*eA*dT*dA*dT*dA*dA*dA*dG*dA*dG*dA*eT*e[5mC]*e[5mC]*eT*e[5mC]) [compound 531164]
% inhibition [1]: 38%

531151 (antisense eT*e[5mC]*eA*e[5mC]*e[5mC]*dA*d[5mC]*d[5mC]*dA*dT*dT*dT*dT*dT*d[5mC]*eA*e[5mC]*eA*eT*eG) [compound 531151]
% inhibition [3]: 44%

531017 (eA*e[5mC]*eT*eG*eG*dT*dG*dT*d[5mC]*d[5mC]*dT*dA*dT*dG*dA*eG*eT*eG*eA*e[5mC]; antisense) [compound 531017]
% inhibition [2]: 31%
